Results taken from patent publication US20050239751A1, “Heterocyclic anti-viral compounds comprising metabolizable moieties and their uses” (Rigel Pharmaceuticals, Inc., priority 2004, published 2005).
Like-named read-outs stand apart in the source and are kept apart here.

Test system: HCV replicon in 5-2 Luc replicon-comprising cells
Test: HCV replicon assay (luciferase; HEPC_REPLICON-LUC)
Type: cell-based, Hepatitis C virus
Conditions: read-out: Replicon (IC50)
Source text: In one embodiment, the inhibitory activity of the metabolically active agent of the prodrug can be confirmed in a replicon assay that assesses the ability of a test compound to block or inhibit HCV replication in replicon cells. One example of a suitable replicon assay is the liver cell-line Huh 7-based replicon assay described in Lohmann et al., 1999, Science 285:110-113. A specific example of this replicon assay which utilizes luciferase translation is provided in the Examples Section. In one embodiment of this assay, the amount of test prodrug that yields a 50% reduction in translation as compared to a control cell (IC50) may be determined.
The inhibitory activity of certain prodrugs of the invention, which may inhibit HCV translation or replication prior to metablism and/or are metabolized into active agents, was confirmed using an HCV replicon assay. The HCV replicon can include such features as the HCV 5′ untranslated region including the HCV IRES, the HCV 3′ untranslated region, selected HCV genes encoding HCV polypeptides, selectable markers, and a reporter gene such as luciferase, GFP, etc. In the assay, actively dividing 5-2 Luc replicon-comprising cells (obtained from Ralf Bartenschlager; see Lohmann et al., 1999, Science 285:110-113) were seeded at a density of between about 5,000 and 7,500 cells/well onto 96 well plates (about 90 µl of cells per well) and incubated at 37° C. and 5% CO2 for 24 hours. Then, the test prodrug (in a volume of about 10 PI) was added to the wells at various concentrations and the cells were incubated for an additional 24-48 hours before luciferase assay. The media was aspirated from each well and Bright-Glo (Promega, Madison, WI) luciferase assay reagents were added to each well according to the manufacturer's instructions. Briefly, the BrightGlo reagent was diluted 1:1 with PBS and 100 µl of diluted reagent was added to each well. After 5 min of incubation at room temperature, luciferin emission was quantified with a luminometer. In this assay, the amount of test prodrug that yielded a 50% reduction in luciferase emission (IC50) was determined. This IC50 value may represent the antiviral activity of the prodrug itself, the activity of prodrug transformed into its active metabolized form, or a combination of the two.
In TABLES 3 through 12, a value of “+” indicates an IC50 of 10 μM or less in the specified assay; a value of “−” indicates an IC50 of greater than 10 μM in the specified assay.

[1] = Tables 3-12, 50% reduction in luciferase emission, 5-2 Luc replicon cells
[2] = Hepatitis C virus, Tables 3-12, 50% reduction in luciferase emission, 5-2 Luc replicon cells

“2,2-dichloro-2-(diethoxyphosphonyl)-N-[3-[3-(2,6-dichlorophenyl)-5-isoxazoyl]phenyl] acetamide [compound 405]” gave an IC50 [1] of no more than 10 µM.

“2,2-dichloro-2-(dihydroxyphosphonyl)-N-[3-[3-(2,6-dichlorophenyl)-5-isoxazoyl]phenyl] acetamide [Cpd. 407]” showed an IC50 [1] greater than 10 µM.

“2,2-dichloro-N-[3′-[3′-(2′-chloro-6′-tbutoxycarbonylphenyl)-5′-isoxazoyl]phenyl]-N-[(5-isopropyl-1,3-dioxolene-2-one4-yl)methylene] acetamide [Cpd. 36]” was tested, and the IC50 [1] was no more than 10 µM.

“2′,2′-Dichloro-N-[3-[3-(2,6-dichlorophenyl)-5-isoxazolyl]-4-(pyridyl)]-N-[2-(4-fluorobenzoyl)ethyl] Acetamide [126a]” was tested, and the IC50 (Table 15) was no more than 10 µM.

“2′,2′-Dichloro-N-[3-[3-(2,6-dichlorophenyl)-5-isoxazolyl]phenyl]-N-[2-(4-fluorobenzoyl)ethyl] Acetamide [100a]” showed an IC50 (Table 15) of no more than 10 µM.

“2′,2′-Dichloro-N-[3-[3-(2,6-dichlorophenyl)-5-isoxazolyl]phenyl]-N-[2-(4-methoxybenzoyl)ethyl] Acetamide [Cpd. 103a]” was tested, and the IC50 (Table 15) was no more than 10 µM.

With “2′,2′-Dichloro-N-[3-[3-(2,6-dichlorophenyl)-5-isoxazolyl]phenyl]-N-[2-(benzoyl)ethyl] Acetamide [Cpd. 102a]” the IC50 (Table 15) was no more than 10 µM.

“2′,2′-Dichloro-N-[3-[3-(2-chloro-6-hydroxycarbonylphenyl)-5-isoxazolyl]phenyl]-N-[2-(4-fluorobenzoyl)ethyl] Acetamide [Cpd. 129a]” was tested, and the IC50 (Table 15) was no more than 10 µM.

“2′,2′-Dichloro-N-[3-[3-(2-chloro-6-methoxycarbonylphenyl)-5-isoxazolyl]phenyl]-N-[2-(4-fluorobenzoyl)ethyl] Acetamide [Cpd. 133a]” showed an IC50 (Table 15) of no more than 10 µM.

With “2′,2′-Dichloro-N-[3-[3-(2-chloro-6-methoxyphenyl)-5-isoxazolyl]phenyl]-N-[2-(4-fluorobenzoyl)ethyl] Acetamide [Cpd. 113a]” the IC50 (Table 15) was no more than 10 µM.

“2′,2′-Dichloro-N-[3-[3-(2-chloro-6-tbutoxycarbonylphenyl)-5-isoxazolyl]phenyl]N-[2-(4-fluorobenzoyl)ethyl] Acetamide [Cpd. 128a]” was tested, and the IC50 (Table 15) was no more than 10 µM.

“2′,2′-Dichloro-N-[3-[3-(2-cyclopropyl-6-trifluoromethylphenyl)-5-isoxazolyl]phenyl]N-[2-(4-fluorobenzoyl)ethyl] Acetamide [Cpd. 114a]” showed an IC50 (Table 15) of no more than 10 µM.

“2′,2′-Dichloro-N-[3-[3-[2-chloro-6-(N′-acetyl-4piperdinyloxy)phenyl]-5-isoxazolyl]phenyl]-N-[2-(4-fluorobenzoyl)ethyl] Acetamide [Cpd. 127a]” was tested, and the IC50 (Table 15) was no more than 10 µM.

Work on “2′,2′-dichloro-2′-(benzyloxycarbonyl)-N-[3-[3-(2,6-dichlorophenyl)-5-isoxazoyl]phenyl] acetamide [Cpd. 17]” yielded an IC50 [1] of no more than 10 µM.

“2′,2′-dichloro-2′-(diethoxyphosphonyl)-N-[3-[3-(2-fluoro-6-trifluoromethylphenyl)-5-isoxazoyl]phenyl] acetamide [Cpd. 6]” gave an IC50 [1] of no more than 10 µM.

“2′,2′-dichloro-2′-(diisopropoxyphosphonyl)-N-[3-[3-(2,6-dichlorophenyl)-5-isoxazoyl]phenyl] acetamide [Cpd. 4]” was tested, and the IC50 [1] was no more than 10 µM.

“2′,2′-dichloro-2′-[(1R, 2S, 5Rkmenthyloxycarbonyl]-N-[3-[3-(2,6-dichlorophenyl)-5-isoxazoyl]phenyl] acetamide [Cpd. 11]” gave an IC50 [1] of no more than 10 µM.

“2′-(diethoxyphosphonyl)-2′,2′-difluoro-N-[3-[3-(2,6-dichlorophenyl)-5-isoxazoyl]phenyl] acetamide [Cpd. 3]” was tested, and the IC50 [1] was greater than 10 µM.

In the case of “2′-chloro-2′-(diethoxyphosphonyl)-2-fluoro-N-[3-[3-(2,6-dichlorophenyl)-5-isoxazoyl]phenyl] acetamide [Cpd. 2]”, the IC50 [1] is reported as greater than 10 µM.

Work on “2′-chloro-2′-(diethoxyphosphonyl)-N-[3-[3-(2,6-dichlorophenyl)-5-isoxazoyl]phenyl] acetamide [Cpd. 1]” yielded an IC50 [1] greater than 10 µM.

For O=C(CCCN(C(=O)C(Cl)Cl)c1cccc(-c2cc(-c3c(Cl)cccc3Cl)no2)c1)c1ccccc1 [107a], the IC50 (Table 15) was no more than 10 µM.

Compound CCOP(=O)(OCC)C(Cl)(Cl)C(=O)Nc1cccc(-c2cc(-c3ccccc3C(F)(F)F)no2)c1 [Cpd. 5] has an IC50 [1] of no more than 10 µM.

Work on CCOC(=O)[C@H](C)OC(=O)C(Cl)(Cl)C(=O)Nc1cccc(-c2cc(-c3c(Cl)cccc3Cl)no2)c1 [Cpd. 8, 2′,2′-dichloro-2′-(1S-ethoxycarbonyl-1-methylmethyleneoxycarbonyl)-N-[3-[3-(2,6-dichlorophenyl)-5-isoxazoyl]phenyl] acetamide] yielded an IC50 [2] of no more than 10 µM.

For CC1(C)C2CCC1(C)C(OC(=O)C(Cl)(Cl)C(=O)Nc1cccc(-c3cc(-c4c(Cl)cccc4Cl)no3)c1)C2 [Cpd. 9, 2′,2′-dichloro-2′-[(1S)-endo-borneyloxycarbonyl]-N-[3-[3-(2,6-dichlorophenyl)-5-isoxazoyl]phenyl] acetamide], the IC50 [2] was no more than 10 µM.

CC(=O)C(Cl)(Cl)C(=O)Nc1cccc(-c2cc(-c3c(Cl)cccc3Cl)no2)c1 [Cpd. 10] gave an IC50 [2] greater than 10 µM.

Work on CCC(C)OC(=O)C(Cl)(Cl)C(=O)Nc1cccc(-c2cc(-c3c(Cl)cccc3Cl)no2)c1 (stereo not drawn) [Cpd. 12, 2′,2′-dichloro-2′-(sec-butoxycarbonyl)-N-[3-[3-(2,6-dichlorophenyl)-5-isoxazoyl]phenyl] acetamide] yielded an IC50 [2] of no more than 10 µM.

Compound O=C(Nc1cccc(-c2cc(-c3c(Cl)cccc3Cl)no2)c1)C(Cl)(Cl)C(=O)OC1CCCCC1 [Cpd. 13, 2′,2′-dichloro-2′-(cyclohexyloxycarbony)-N-[3-[3-(2,6-dichlorophenyl)-5-isoxazoyl]phenyl] acetamide] has an IC50 [2] of no more than 10 µM.

CC(C)(C)COC(=O)C(Cl)(Cl)C(=O)Nc1cccc(-c2cc(-c3c(Cl)cccc3Cl)no2)c1 [Cpd. 14] showed an IC50 [2] of no more than 10 µM.

Compound CC(C)(C)OC(=O)C(Cl)(Cl)C(=O)Nc1cccc(-c2cc(-c3c(Cl)cccc3Cl)no2)c1 [Cpd. 15] has an IC50 [2] of no more than 10 µM.

With CC(C)OC(=O)C(Cl)(Cl)C(=O)Nc1cccc(-c2cc(-c3c(Cl)cccc3Cl)no2)c1 [Cpd. 16, 2′,2′-dichloro-2′-(isopropoxycarbonyl)-N-[3-[3-(2,6-dichlorophenyl)-5-isoxazoyl]phenyl] acetamide] the IC50 [2] was no more than 10 µM.

For COC(=O)C(Cl)(Cl)C(=O)Nc1cccc(-c2cc(-c3c(Cl)cccc3Cl)no2)c1 [Cpd. 18], the IC50 [2] was no more than 10 µM.

For COC(=O)C(Cl)(Cl)C(=O)Nc1cccc(-c2cc(-c3c(C4CC4)cccc3C(F)(F)F)no2)c1 [Cpd. 26, 2′,2′-dichloro-2′-(methoxycarbonyl)-N-[3-[3-(2-cyclopropyl-6-trifluoromethylphenyl]5-isoxazoyl]phenyl] acetamide], the IC50 [2] was no more than 10 µM.

In the case of COC(=O)C(Cl)(Cl)C(=O)Nc1cccc(-c2cc(-c3c(Cl)cccc3OC)no2)c1 [Cpd. 27, 2′,2′-dichloro-2′-(methoxycarbonyl)-N-[3-[3-(2-chloro-6-methoxyphenyl]5-isoxazoyl]phenyl] acetamide], the IC50 [2] is reported as no more than 10 µM.

In the case of COC(=O)C(Cl)(Cl)C(=O)Nc1cccc(-c2cc(-c3c(Cl)ccnc3N(C)C)no2)c1 [Cpd. 28], the IC50 [2] is reported as no more than 10 µM.

Compound COC(=O)C(Cl)(Cl)C(=O)Nc1cccc(-c2cc(-c3ccccc3C(F)(F)F)no2)c1 [Cpd. 29, 2′,2′-dichloro-2′-(methoxycarbonyl)-N-[3-[3-(2-trifluoromethylphenyl)-5-isoxazoyl]phenyl] acetamide] has an IC50 [2] of no more than 10 µM.

COC(=O)C(Cl)(Cl)C(=O)Nc1cccc(-c2cc(-c3c(F)cccc3C(F)(F)F)no2)c1 [Cpd. 30, 2′,2′-dichloro-2′-(methoxycarbonyl)-N-[3-[3-(2-fluoro-6-trifluoromethylphenyl)-5-isoxazoyl]phenyl] acetamide] gave an IC50 [2] of no more than 10 µM.

Work on COc1cccc(Cl)c1-c1cc(-c2cccc(N(Cc3oc(=O)oc3C)C(=O)C(Cl)Cl)c2)on1 [Cpd. 31, 2,2-dichloro-N-[3′-[3′-(2′-chloro-6′-methoxyphenyl)-5′-isoxazoyl]phenyl]-N-[(5-methyl-1,3-dioxolene-2-one-4-yl)methylene] acetamide] yielded an IC50 [2] of no more than 10 µM.

In the case of CC(C)c1oc(=O)oc1CN(C(=O)C(Cl)Cl)c1cccc(-c2cc(-c3c(Cl)cccc3Cl)no2)c1 [Cpd. 34, 2,2-dichloro-N-[3′-[3′-(2′,6′-dichlorophenyl)-5′-isoxazoyl]phenyl]-N-[(5-isopropyl-1,3-dioxolene-2-one4-yl)methylene] acetamide], the IC50 [2] is reported as no more than 10 µM.

For CC(C)c1oc(=O)oc1CN(C(=O)C(Cl)Cl)c1cccc(-c2cc(-c3c(Cl)ccnc3N(C)C)no2)c1 [Cpd. 35], the IC50 [2] was no more than 10 µM.
